From a compilation of properties of binary mixtures (doi:10.1016/j.jct.2017.07.022)

Assay: xn = mol fraction of the nth substance listed
Details: 100 kPa

CC(C)O + CC[n+]1ccccc1.N#C[N-]C#N
x1 = 1
Details	viscosity [mPa·s]
288.15 K	2.83
293.15 K	2.42
298.15 K	2.08
303.15 K	1.8
308.15 K	1.56
313.15 K	1.33
318.15 K	1.17

CCCO + CC[n+]1ccccc1.N#C[N-]C#N
x1 = 1
Details	viscosity [mPa·s]
293.15 K	2.22
298.15 K	1.97
303.15 K	1.75
308.15 K	1.56
313.15 K	1.36
318.15 K	1.23

CCO + CC[n+]1ccccc1.N#C[N-]C#N
x1 = 1
Details	viscosity [mPa·s]
293.15 K	1.17
298.15 K	1.07
303.15 K	0.975
308.15 K	0.89
313.15 K	0.815
318.15 K	0.747

CC[n+]1ccccc1.N#C[N-]C#N + CCO
viscosity [mPa·s]
Details	x2 = 0	x2 = 0.1008	x2 = 0.1974	x2 = 0.3008	x2 = 0.3994	x2 = 0.5058	x2 = 0.5994	x2 = 0.6996	x2 = 0.7999	x2 = 0.9011
288.15 K	–	–	16.8	13.4	10.5	7.99	6.13	4.66	3.05	2.24
293.15 K	22.1	–	14.4	11.7	9.23	7.07	5.46	4.22	2.78	2.02
298.15 K	–	15.4	–	–	8.19	6.31	4.91	3.85	–	1.86
303.15 K	16.4	13.3	10.9	9.23	7.34	5.69	4.47	3.49	2.31	–
308.15 K	14.3	11.5	9.58	8.28	6.61	–	4.08	3.19	2.12	1.55
313.15 K	12.5	10.1	8.51	7.45	–	–	–	–	1.94	1.42
318.15 K	11	–	7.62	6.74	–	4.31	3.44	2.68	1.79	1.31
